Test results: ChEMBL document CHEMBL3352619, “Design, synthesis and biological evaluation of novel 6,7-disubstituted-4-phenoxyquinoline derivatives bearing 4-oxo-3,4-dihydrophthalazine-1-carboxamide moieties as c-Met kinase inhibitors” (Bioorg Med Chem, 2014)

Tests used:
[1] = Cytotoxicity against human MKN45 cells after 72 hrs by MTT assay; details: MKN-45, 72 h
[2] = Cytotoxicity against human H460 cells after 72 hrs by MTT assay; details: NCI-H460, 72 h
HT-29 = assay: Cytotoxicity against human HT-29 cells after 72 hrs by MTT assay; details: HT-29, 72 h
MDA-MB-231 = assay: cells; details: Homo sapiens, MDA-MB-231, 72 h
Description: Cytotoxicity against human MDA-MB-231 cells after 72 hrs by MTT assay

[3] = target: T1, Receptor-type tyrosine-protein kinase FLT3 (Homo sapiens, UniProt P36888); assay: Inhibition of FLT3 (unknown origin) after 30 mins using poly (Glu,Tyr)4:1 substrate
T1 sequence (P36888 whole entry): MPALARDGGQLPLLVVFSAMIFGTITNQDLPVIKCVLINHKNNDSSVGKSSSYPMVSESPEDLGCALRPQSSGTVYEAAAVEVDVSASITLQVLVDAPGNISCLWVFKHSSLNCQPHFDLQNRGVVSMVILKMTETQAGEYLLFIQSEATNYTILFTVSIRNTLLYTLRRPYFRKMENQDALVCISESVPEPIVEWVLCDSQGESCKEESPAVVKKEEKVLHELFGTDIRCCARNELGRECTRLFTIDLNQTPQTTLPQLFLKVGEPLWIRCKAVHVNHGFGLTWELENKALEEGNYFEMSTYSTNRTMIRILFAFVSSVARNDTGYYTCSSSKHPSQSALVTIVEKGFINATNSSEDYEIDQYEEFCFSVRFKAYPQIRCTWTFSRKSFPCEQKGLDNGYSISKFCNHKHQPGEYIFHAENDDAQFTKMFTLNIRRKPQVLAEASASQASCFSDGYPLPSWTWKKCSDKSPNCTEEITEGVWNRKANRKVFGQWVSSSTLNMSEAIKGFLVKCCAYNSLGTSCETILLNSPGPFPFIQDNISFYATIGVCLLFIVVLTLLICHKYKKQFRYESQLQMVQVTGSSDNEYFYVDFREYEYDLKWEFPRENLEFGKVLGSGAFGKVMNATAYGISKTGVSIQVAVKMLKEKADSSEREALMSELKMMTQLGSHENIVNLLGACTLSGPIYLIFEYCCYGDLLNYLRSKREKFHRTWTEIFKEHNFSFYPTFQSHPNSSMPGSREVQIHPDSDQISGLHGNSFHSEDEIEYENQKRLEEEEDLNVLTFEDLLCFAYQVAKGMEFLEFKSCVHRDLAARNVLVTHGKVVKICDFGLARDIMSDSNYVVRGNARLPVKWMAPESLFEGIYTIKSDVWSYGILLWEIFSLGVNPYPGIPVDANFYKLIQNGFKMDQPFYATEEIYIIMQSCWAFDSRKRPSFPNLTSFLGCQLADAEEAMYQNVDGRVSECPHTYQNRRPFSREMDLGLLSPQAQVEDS

[4] = target: Epidermal growth factor receptor (Homo sapiens, UniProt P00533); assay: Inhibition of EGFR (unknown origin) after 30 mins using poly (Glu,Tyr)4:1 substrate
[5] = target: Platelet-derived growth factor receptor alpha (Homo sapiens, UniProt P16234); assay: Inhibition of PDGFRalpha (unknown origin) after 30 mins using poly (Glu,Tyr)4:1 substrate
[6] = target: Mast/stem cell growth factor receptor Kit (Homo sapiens, UniProt P10721); assay: Inhibition of c-KIT (unknown origin) after 30 mins using poly (Glu,Tyr)4:1 substrate
[7] = target: Hepatocyte growth factor receptor (Homo sapiens, UniProt P08581); assay: Inhibition of c-Met (unknown origin) after 30 mins using poly (Glu,Tyr)4:1 substrate
[8] = target: Vascular endothelial growth factor receptor 2 (Homo sapiens, UniProt P35968); assay: Inhibition of VEGFR2 (unknown origin) after 30 mins using poly (Glu,Tyr)4:1 substrate
Vascular endothelial growth factor receptor 2, sequence (P35968 whole entry): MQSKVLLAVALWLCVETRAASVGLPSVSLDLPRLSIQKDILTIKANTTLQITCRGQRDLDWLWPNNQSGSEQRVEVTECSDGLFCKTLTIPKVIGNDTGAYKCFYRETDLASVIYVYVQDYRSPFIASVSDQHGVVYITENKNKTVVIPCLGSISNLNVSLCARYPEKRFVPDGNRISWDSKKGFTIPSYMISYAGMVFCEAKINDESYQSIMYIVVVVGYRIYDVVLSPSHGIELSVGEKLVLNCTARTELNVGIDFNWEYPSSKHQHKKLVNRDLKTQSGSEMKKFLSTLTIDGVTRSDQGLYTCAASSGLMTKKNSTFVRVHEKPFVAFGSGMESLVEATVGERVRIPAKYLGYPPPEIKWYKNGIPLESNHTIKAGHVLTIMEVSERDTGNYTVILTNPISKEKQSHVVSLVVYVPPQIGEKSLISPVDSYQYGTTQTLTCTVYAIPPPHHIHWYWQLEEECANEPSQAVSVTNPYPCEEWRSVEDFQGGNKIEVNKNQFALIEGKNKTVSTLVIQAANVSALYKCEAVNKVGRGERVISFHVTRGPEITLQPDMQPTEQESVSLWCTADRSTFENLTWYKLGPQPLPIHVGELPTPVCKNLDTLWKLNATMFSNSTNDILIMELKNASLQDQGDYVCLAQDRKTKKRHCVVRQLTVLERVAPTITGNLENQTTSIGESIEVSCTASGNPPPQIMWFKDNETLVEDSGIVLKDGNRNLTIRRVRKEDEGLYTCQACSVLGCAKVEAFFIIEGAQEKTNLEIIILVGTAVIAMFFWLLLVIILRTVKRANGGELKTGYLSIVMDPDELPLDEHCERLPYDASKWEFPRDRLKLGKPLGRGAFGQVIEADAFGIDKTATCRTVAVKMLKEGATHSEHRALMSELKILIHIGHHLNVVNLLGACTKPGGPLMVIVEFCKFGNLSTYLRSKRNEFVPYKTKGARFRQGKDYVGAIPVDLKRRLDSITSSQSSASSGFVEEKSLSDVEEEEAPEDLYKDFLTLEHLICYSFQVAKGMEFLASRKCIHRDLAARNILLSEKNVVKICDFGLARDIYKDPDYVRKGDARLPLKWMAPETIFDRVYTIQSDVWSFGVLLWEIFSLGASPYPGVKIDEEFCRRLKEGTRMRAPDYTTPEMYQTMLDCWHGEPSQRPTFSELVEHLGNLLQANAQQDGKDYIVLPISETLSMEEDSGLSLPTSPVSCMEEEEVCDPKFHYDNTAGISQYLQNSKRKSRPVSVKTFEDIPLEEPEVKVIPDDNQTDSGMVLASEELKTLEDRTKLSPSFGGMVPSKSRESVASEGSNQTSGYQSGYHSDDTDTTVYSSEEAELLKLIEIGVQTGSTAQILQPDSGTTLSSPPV

Mast/stem cell growth factor receptor Kit, sequence (P10721 whole entry): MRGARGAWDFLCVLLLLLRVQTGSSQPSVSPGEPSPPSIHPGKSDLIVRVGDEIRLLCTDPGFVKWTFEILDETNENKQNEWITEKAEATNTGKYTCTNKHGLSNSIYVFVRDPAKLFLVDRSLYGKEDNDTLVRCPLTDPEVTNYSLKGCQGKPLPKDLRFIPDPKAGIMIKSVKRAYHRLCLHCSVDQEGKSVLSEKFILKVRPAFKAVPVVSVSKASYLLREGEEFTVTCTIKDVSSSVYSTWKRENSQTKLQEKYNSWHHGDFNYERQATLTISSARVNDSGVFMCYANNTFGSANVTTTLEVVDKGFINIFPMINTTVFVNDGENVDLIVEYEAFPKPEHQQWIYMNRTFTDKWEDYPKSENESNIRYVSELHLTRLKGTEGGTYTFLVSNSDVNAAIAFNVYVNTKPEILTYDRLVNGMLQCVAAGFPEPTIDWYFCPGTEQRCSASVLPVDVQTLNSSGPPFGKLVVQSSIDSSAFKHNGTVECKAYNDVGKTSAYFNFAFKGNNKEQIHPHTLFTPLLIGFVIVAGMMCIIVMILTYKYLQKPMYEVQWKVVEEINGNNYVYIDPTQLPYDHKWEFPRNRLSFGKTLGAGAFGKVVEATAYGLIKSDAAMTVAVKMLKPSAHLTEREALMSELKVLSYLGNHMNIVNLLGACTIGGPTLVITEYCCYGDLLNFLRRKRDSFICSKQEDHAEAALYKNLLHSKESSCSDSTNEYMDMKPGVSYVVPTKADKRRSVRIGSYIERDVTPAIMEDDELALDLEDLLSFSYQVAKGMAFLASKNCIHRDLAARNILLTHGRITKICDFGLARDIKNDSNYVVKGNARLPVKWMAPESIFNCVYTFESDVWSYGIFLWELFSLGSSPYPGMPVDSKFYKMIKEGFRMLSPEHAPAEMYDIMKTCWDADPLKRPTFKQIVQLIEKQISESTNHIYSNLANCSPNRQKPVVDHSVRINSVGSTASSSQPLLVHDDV
Hepatocyte growth factor receptor, sequence (P08581 whole entry): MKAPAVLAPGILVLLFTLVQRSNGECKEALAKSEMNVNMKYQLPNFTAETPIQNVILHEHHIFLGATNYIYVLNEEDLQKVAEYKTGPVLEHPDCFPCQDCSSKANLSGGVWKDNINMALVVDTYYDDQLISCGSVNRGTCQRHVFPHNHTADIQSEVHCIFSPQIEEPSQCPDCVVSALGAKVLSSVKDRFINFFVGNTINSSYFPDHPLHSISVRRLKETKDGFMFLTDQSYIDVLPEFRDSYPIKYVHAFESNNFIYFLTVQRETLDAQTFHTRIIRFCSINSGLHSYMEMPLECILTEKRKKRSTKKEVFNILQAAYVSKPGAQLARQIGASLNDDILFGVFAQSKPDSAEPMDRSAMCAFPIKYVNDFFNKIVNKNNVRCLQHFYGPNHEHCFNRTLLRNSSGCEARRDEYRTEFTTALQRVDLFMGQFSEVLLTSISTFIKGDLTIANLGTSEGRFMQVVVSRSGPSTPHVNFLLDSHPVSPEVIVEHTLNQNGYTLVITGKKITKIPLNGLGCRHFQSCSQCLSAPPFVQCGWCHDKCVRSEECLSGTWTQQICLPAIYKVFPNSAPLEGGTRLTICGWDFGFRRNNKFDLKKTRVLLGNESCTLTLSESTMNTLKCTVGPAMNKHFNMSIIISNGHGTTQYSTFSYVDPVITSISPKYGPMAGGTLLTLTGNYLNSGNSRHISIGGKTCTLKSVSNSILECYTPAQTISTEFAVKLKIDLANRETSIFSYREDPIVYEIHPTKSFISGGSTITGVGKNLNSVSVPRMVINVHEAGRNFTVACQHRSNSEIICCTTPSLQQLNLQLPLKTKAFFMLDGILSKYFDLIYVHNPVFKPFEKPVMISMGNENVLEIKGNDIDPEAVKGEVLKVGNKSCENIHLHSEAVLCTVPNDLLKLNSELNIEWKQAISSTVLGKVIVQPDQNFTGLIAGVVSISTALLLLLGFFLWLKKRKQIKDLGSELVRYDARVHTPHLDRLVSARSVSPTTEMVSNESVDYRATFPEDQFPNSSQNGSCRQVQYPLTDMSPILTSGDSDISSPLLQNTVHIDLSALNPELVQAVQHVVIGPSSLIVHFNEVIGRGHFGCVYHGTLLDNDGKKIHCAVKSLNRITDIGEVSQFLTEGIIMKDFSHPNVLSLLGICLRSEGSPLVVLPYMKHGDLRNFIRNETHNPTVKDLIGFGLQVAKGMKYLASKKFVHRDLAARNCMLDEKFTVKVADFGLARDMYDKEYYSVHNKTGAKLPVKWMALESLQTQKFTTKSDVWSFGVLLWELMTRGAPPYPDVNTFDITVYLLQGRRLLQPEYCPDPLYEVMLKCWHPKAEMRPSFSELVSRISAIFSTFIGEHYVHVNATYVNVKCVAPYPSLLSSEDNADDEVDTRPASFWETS
Platelet-derived growth factor receptor alpha, sequence (P16234 whole entry): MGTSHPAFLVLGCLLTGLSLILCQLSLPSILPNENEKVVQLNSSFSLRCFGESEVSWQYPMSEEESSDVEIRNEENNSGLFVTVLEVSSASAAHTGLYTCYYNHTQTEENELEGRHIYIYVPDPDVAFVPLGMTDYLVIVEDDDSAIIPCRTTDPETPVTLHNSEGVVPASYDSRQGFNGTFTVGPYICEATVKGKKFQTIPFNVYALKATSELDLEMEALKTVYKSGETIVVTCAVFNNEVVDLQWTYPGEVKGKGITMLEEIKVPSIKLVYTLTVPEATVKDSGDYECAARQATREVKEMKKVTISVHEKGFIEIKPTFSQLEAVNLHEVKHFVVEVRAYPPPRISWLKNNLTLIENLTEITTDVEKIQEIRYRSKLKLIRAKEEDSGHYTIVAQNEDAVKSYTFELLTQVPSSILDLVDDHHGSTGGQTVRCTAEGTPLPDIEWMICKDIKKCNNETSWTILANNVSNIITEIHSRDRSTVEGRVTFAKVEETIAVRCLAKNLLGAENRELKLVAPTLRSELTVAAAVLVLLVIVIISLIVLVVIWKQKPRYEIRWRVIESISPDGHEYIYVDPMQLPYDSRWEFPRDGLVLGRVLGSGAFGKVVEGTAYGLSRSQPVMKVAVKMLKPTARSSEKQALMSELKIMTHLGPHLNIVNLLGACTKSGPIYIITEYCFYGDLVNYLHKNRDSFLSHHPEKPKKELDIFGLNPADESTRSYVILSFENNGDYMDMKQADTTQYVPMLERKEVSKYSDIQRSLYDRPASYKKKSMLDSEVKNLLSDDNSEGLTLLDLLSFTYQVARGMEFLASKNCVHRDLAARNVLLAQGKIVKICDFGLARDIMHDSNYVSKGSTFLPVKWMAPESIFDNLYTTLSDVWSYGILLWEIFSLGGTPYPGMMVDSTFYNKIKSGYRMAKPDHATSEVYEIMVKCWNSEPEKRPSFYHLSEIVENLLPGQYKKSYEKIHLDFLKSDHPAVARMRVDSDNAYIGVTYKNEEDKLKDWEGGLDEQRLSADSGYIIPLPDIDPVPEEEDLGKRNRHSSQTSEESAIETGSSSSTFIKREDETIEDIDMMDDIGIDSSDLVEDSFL

Row | SMILES | IC50 [1] [nM] | IC50 [2] [nM] | IC50 (HT-29) [nM] | IC50 (MDA-MB-231) [nM] | IC50 [3] [nM] | IC50 [4] [nM] | IC50 [5] [nM] | IC50 [6] [nM] | IC50 [7] [nM] | IC50 [8] [nM]
1 | COc1cc2c(Oc3ccc(NC(=O)c4nn(-c5ccc(Br)cc5)c(=O)c5ccccc45)cc3F)ccnc2cc1OCCCN1CCC(C)CC1 | 330 | 350 | 920 | 1160 | – | – | – | – | – | –
2 | COc1cc2c(Oc3ccc(NC(=O)c4nn(-c5ccc(Br)cc5)c(=O)c5ccccc45)cc3F)ccnc2cc1OCCCN1CCOCC1 | 340 | 290 | 710 | 960 | – | – | – | – | – | –
3 | COc1cc2c(Oc3ccc(NC(=O)c4nn(-c5cccc(F)c5)c(=O)c5ccccc45)cc3F)ccnc2cc1OCCCN1CCC(C)CC1 | 220 | 190 | 500 | 860 | – | – | – | – | – | –
4 | COc1cc2c(Oc3ccc(NC(=O)c4nn(-c5ccc([N+](=O)[O-])cc5)c(=O)c5ccccc45)cc3F)ccnc2cc1OCCCN1CCN(C)CC1 | 1320 | 980 | 2560 | 3490 | – | – | – | – | – | –
5 | COc1cc2c(Oc3ccc(NC(=O)c4nn(-c5ccccc5)c(=O)c5ccccc45)cc3F)ccnc2cc1OCCCN1CCCCC1 | 590 | 650 | 1310 | 1880 | – | – | – | – | – | –
6 | COc1cc2c(Oc3ccc(NC(=O)c4nn(-c5ccc(Br)cc5)c(=O)c5ccccc45)cc3F)ccnc2cc1OCCCN1CCCCC1 | 500 | 410 | 770 | 1130 | – | – | – | – | – | –
7 | COc1cc2c(Oc3ccc(NC(=O)c4nn(-c5ccc(F)cc5)c(=O)c5ccccc45)cc3F)ccnc2cc1OCCCN1CCOCC1 | 90 | 100 | 260 | 670 | – | – | – | – | – | –
8 | COc1cc2c(Oc3ccc(NC(=O)c4nn(-c5ccccc5F)c(=O)c5ccccc45)cc3F)ccnc2cc1OCCCN1CCCC1 | 140 | – | 400 | – | – | – | – | – | – | –
9 | COc1cc2c(Oc3ccc(NC(=O)c4nn(-c5ccc(Br)cc5)c(=O)c5ccccc45)cc3F)ccnc2cc1OCCCN1CCN(C)CC1 | 350 | 250 | 850 | 1370 | – | – | – | – | – | –
10 | COc1cc2c(Oc3ccc(NC(=O)c4nn(-c5ccccc5Br)c(=O)c5ccccc45)cc3F)ccnc2cc1OCCCN1CCOCC1 | 450 | 370 | 680 | 1560 | – | – | – | – | – | –
11 | COc1cc2c(Oc3ccc(NC(=O)c4nn(-c5ccc(F)cc5)c(=O)c5ccccc45)cc3F)ccnc2cc1OCCCN1CCCC1 | 71 | 55 | 130 | 430 | 3.49 | > 10000 | 15.7 | 2.17 | 1.63 | 70.4
12 | COc1cc2c(Oc3ccc(NC(=O)c4nn(-c5ccc(Br)cc5)c(=O)c5ccccc45)cc3F)ccnc2cc1OCCCN1CCCC1 | 230 | 180 | 670 | 1160 | – | – | – | – | – | –
13 | COc1ccc(-n2nc(C(=O)Nc3ccc(Oc4ccnc5cc(OCCCN6CCOCC6)c(OC)cc45)c(F)c3)c3ccccc3c2=O)cc1 | 1620 | 1240 | 3360 | 3980 | – | – | – | – | – | –
14 | COc1cc2c(Oc3ccc(NC(=O)c4nn(-c5ccc([N+](=O)[O-])cc5)c(=O)c5ccccc45)cc3F)ccnc2cc1OCCCN1CCC(C)CC1 | 1150 | 1340 | 2450 | 4010 | – | – | – | – | – | –
15 | COc1cc2c(Oc3ccc(NC(=O)c4nn(-c5ccccc5F)c(=O)c5ccccc45)cc3F)ccnc2cc1OCCCN1CCC(C)CC1 | 260 | 200 | 510 | 670 | – | – | – | – | – | –
16 | COc1cc2c(Oc3ccc(NC(=O)c4nn(-c5ccc([N+](=O)[O-])cc5)c(=O)c5ccccc45)cc3F)ccnc2cc1OCCCN1CCCCC1 | 1140 | 1300 | 2170 | 2620 | – | – | – | – | – | –
17 | COc1cc2c(Oc3ccc(NC(=O)c4nn(-c5ccccc5)c(=O)c5ccccc45)cc3F)ccnc2cc1OCCCN1CCOCC1 | 430 | 580 | 1380 | 1230 | – | – | – | – | – | –
18 | COc1cc2c(Oc3ccc(NC(=O)c4nn(-c5ccccc5F)c(=O)c5ccccc45)cc3F)ccnc2cc1OCCCN1CCCCC1 | 350 | 160 | 630 | 910 | – | – | – | – | – | –

Row | SMILES | IC50 [1] [nM] | IC50 [2] [nM] | IC50 (HT-29) [nM] | IC50 (MDA-MB-231) [nM] | IC50 [3] [nM] | IC50 [4] [nM] | IC50 [5] [nM] | IC50 [6] [nM] | IC50 [7] [nM] | IC50 [8] [nM]
19 | COc1cc2c(Oc3ccc(NC(=O)c4nn(-c5ccccc5Br)c(=O)c5ccccc45)cc3F)ccnc2cc1OCCCN1CCN(C)CC1 | 400 | 290 | 1190 | 1680 | – | – | – | – | – | –
20 | COc1cc2c(Oc3ccc(NC(=O)c4nn(-c5cccc(F)c5)c(=O)c5ccccc45)cc3F)ccnc2cc1OCCCN1CCCC1 | 160 | – | 460 | – | – | – | – | – | – | –
21 | COc1ccc(-n2nc(C(=O)Nc3ccc(Oc4ccnc5cc(OCCCN6CCCCC6)c(OC)cc45)c(F)c3)c3ccccc3c2=O)cc1 | 950 | 840 | 1450 | 2010 | – | – | – | – | – | –
22 | COc1ccc(-n2nc(C(=O)Nc3ccc(Oc4ccnc5cc(OCCCN6CCN(C)CC6)c(OC)cc45)c(F)c3)c3ccccc3c2=O)cc1 | 1320 | 1110 | 3700 | 3980 | – | – | – | – | – | –
23 | COc1cc2c(Oc3ccc(NC(=O)c4nn(-c5ccc(F)cc5)c(=O)c5ccccc45)cc3F)ccnc2cc1OCCCN1CCCCC1 | 180 | – | 290 | – | – | – | – | – | – | –
24 | COc1cc2c(Oc3ccc(NC(=O)c4nn(-c5ccc(F)cc5)c(=O)c5ccccc45)cc3F)ccnc2cc1OCCCN1CCN(C)CC1 | 150 | – | 320 | – | – | – | – | – | – | –
25 | COc1cc2c(Oc3ccc(NC(=O)c4nn(-c5ccc([N+](=O)[O-])cc5)c(=O)c5ccccc45)cc3F)ccnc2cc1OCCCN1CCOCC1 | 1940 | 1890 | 2520 | 3480 | – | – | – | – | – | –
26 | COc1cc2c(Oc3ccc(NC(=O)c4nn(-c5ccccc5)c(=O)c5ccccc45)cc3F)ccnc2cc1OCCCN1CCCC1 | 530 | – | 980 | – | – | – | – | – | – | –
27 | COc1cc2c(Oc3ccc(NC(=O)c4nn(-c5ccccc5F)c(=O)c5ccccc45)cc3F)ccnc2cc1OCCCN1CCN(C)CC1 | 210 | 230 | 480 | 1050 | – | – | – | – | – | –
28 | COc1cc2c(Oc3ccc(NC(=O)c4nn(-c5ccccc5F)c(=O)c5ccccc45)cc3F)ccnc2cc1OCCCN1CCOCC1 | 150 | 190 | 470 | 700 | – | – | – | – | – | –
29 | COc1cc2c(Oc3ccc(NC(=O)c4nn(-c5ccc(F)cc5)c(=O)c5ccccc45)cc3F)ccnc2cc1OCCCN1CCC(C)CC1 | 130 | 110 | 330 | 660 | – | – | – | – | – | –
30 | COc1cc2c(Oc3ccc(NC(=O)c4nn(-c5ccccc5)c(=O)c5ccccc45)cc3F)ccnc2cc1OCCCN1CCN(C)CC1 | 620 | 450 | 1140 | 1580 | – | – | – | – | – | –
31 | COc1cc2c(Oc3ccc(NC(=O)c4nn(-c5ccccc5)c(=O)c5ccccc45)cc3F)ccnc2cc1OCCCN1CCC(C)CC1 | 580 | 550 | 1040 | 1480 | – | – | – | – | – | –
32 | COc1ccc(-n2nc(C(=O)Nc3ccc(Oc4ccnc5cc(OCCCN6CCCC6)c(OC)cc45)c(F)c3)c3ccccc3c2=O)cc1 | 1320 | 1650 | 2360 | 3450 | – | – | – | – | – | –
33 | COc1cc2c(Oc3ccc(NC(=O)c4nn(-c5ccc([N+](=O)[O-])cc5)c(=O)c5ccccc45)cc3F)ccnc2cc1OCCCN1CCCC1 | 1620 | 1240 | 1760 | 2980 | – | – | – | – | – | –
34 | COc1cc2c(Oc3ccc(NC(=O)c4nn(-c5ccccc5Br)c(=O)c5ccccc45)cc3F)ccnc2cc1OCCCN1CCCC1 | 410 | 320 | 850 | 1020 | – | – | – | – | – | –
35 | COc1cc2c(Oc3ccc(NC(=O)c4nn(-c5ccccc5Br)c(=O)c5ccccc45)cc3F)ccnc2cc1OCCCN1CCC(C)CC1 | 510 | 390 | 950 | 1240 | – | – | – | – | – | –
